According to patent US12059400B2, “Medical compound” (VERA SALUS RICERCA S.R.L., priority 2017, dated 2024):
“Also recorded” adds a separate entry of the source.

test system: melanoma, A375; test: Apoptosis, acridine orange/ethidium bromide method; format: cell-based, human; settings: 2 hrs; Compound 2 40 μM, 5 40 μM, 4 40 μM, 3 60 μM, 1 80 μM; FIG. 18
Excerpt: (§1) Tumour cell apoptosis was quantified by the acridine orange/ethidium bromide (AO/EB) method and by using a fluorescence microscope and image-J. In short, after treatment with the test compounds (2 hrs), the tumour cells were placed in contact with an AO/EB solution (in sterile H2O) and photographed with a fluorescence microscope (Leica) by using the ≥20× objective (so as to distinguish the morphology of cell nuclei). In this way, the living cells are labelled with AO and emit fluorescence in the green channel, while the necrotic cells, which have undergone the rupture of the plasma membrane, are permeable to EB and emit fluorescence in the red channel. In contrast, apoptotic cells are permeable to both AO and EB, and as a consequence of the colocalization of the two fluorescences appear yellow-orange when the two individual microscope-acquired fluorescences are superimposed by using the editing program Image J. The objective quantification of the colocalization areas (apoptotic cells) and the non-colocalization areas (living or necrotic cells) was carried out on a number of cells ≥300/condition through the use of Apoptosis Correlator (ImageJ plug-in) and shown as the percentage of living (green), necrotic (red) or apoptotic (yellow-orange) tumour cells. Data analysis was carried out by using GraphPad Prism 6 for graphical representation and statistical processing (2-way ANOVA test).

| Substance | induction of apoptosis in A375 |
| --- | --- |
| 2-(3,4-Dihydroxyphenyl)-3-ethoxy-5,7-dihydroxy-4H-chromen-4-one [Compound 1] | induced apoptosis |
| 2-(3,4-dihydroxyphenyl)-5,7-dihydroxy-4-oxo-4H-chromen-3-yl palmitate [Compound 5] | induced apoptosis |
| 2-(3,4-Dihydroxyphenyl)-3-hexadecyloxy-5,7-dihydroxy-4H-chromen-4-one [Compound 3] | induced apoptosis |

test system: human colon carcinoma cells (HCT116); test: Cell cycle progression, propidium iodide method, cytofluorimeter; format: cell-based; settings: 24 hrs; at the respective anti-proliferative IC50s; FIG. 20
Method: (§2) Progression through the tumour cell cycle was assessed by the propidium iodide method and quantification of the cell DNA content with a cytofluorimeter. Briefly, after treatment (in duplicate) with the test compounds (24 hrs), the tumour cells were washed (with PBS), detached with trypsin-EDTA and pelleted by centrifugation (125 g for 6 min). The cells were then fixed in ethanol (70%) and stored in the freezer (−20° C.) for 1-3 days. After further washing (PBS) and treatment with RNAse (50 ug/ml), the cells were contacted (on ice in the dark; 30 min) with propidium iodide (50 μg/ml). FL2 and FL3 cytofluorimeter readings analysed approximately 50,000 cells (1 μl/second) per sample. Statistical analysis and graphical representation were performed by using t-tests and preset Excel property files.

| Substance | halt of HCT116 tumour cells in S of the cell cycle |
| --- | --- |
| 2-(3,4-Dihydroxyphenyl)-3-ethoxy-5,7-dihydroxy-4H-chromen-4-one [Compound 1] | significantly halt |
| 2-(3,4-Dihydroxyphenyl)-3-hexadecyloxy-5,7-dihydroxy-4H-chromen-4-one [Compound 3] | significantly halt |

same assay, conditions: Compound at its anti-proliferative IC50 + N-Acetyl Cysteine 10 mM; FIG. 21 left

| Substance | effect on the HCT116 cell cycle in presence of ROS scavenger NAC |
| --- | --- |
| 2-(3,4-Dihydroxyphenyl)-3-ethoxy-5,7-dihydroxy-4H-chromen-4-one [Compound 1] | partly mediated by ROS |

test system: human melanoma cells (A375); test: as above; format: cell-based; settings: 24 hrs; at the respective anti-proliferative IC50s; FIG. 19
Method: as §2

| Substance | halt of A375 tumour cells in S and/or G2 of the cell cycle |
| --- | --- |
| 2-(3,4-Dihydroxyphenyl)-3-ethoxy-5,7-dihydroxy-4H-chromen-4-one [Compound 1] | significantly halt |
| 2-(3,4-dihydroxyphenyl)-5,7-dihydroxy-4-oxo-4H-chromen-3-yl palmitate [Compound 5] | significantly halt |
| 2-(3,4-Dihydroxyphenyl)-3-hexadecyloxy-5,7-dihydroxy-4H-chromen-4-one [Compound 3] | exception |

same assay, conditions: Compound at its anti-proliferative IC50 + N-Acetyl Cysteine 10 mM; FIG. 21 right

| Substance | effect on the A375 cell cycle in presence of ROS scavenger NAC |
| --- | --- |
| 2-(3,4-Dihydroxyphenyl)-3-ethoxy-5,7-dihydroxy-4H-chromen-4-one [Compound 1] | partly mediated by ROS |

test system: human colon carcinoma cells (HCT116); test: Cell proliferation, crystal violet method; format: cell-based; settings: 100 μM; FIG. 3a, 3b, 13a, 13b
Method: (§3) The compound according to the invention, and in particular the synthetic quercetin derivatives described and illustrated herein were investigated in vitro by using human tumour cells and assessing their impact on the tumour proliferative capacity, with regard to the tumours described above. In particular, the following human tumour cell lines were assessed experimentally: 1) HCT116, colon adenocarcinoma cells; 2) H1299, lung adenocarcinoma cells; 3) A375, melanoma cells, and 4) A431, squamous skin cell carcinoma; 5) 786-0, renal carcinoma cells; 6) PC3, prostate carcinoma cells; 7) BT549, mammary carcinoma cells; 8) CAL27, tongue carcinoma cells (belonging to the head-and-neck carcinomas); 9) HepG2, hepatocellular carcinoma cells; 10) PANC-1, pancreas carcinoma cells; 11) T24, bladder carcinoma cells; 12) OVCAR-3, ovarian carcinoma cells. In addition, a normal human cell line, WS1 (skin fibroblasts) was also treated with the novel synthetic compounds.
(§4) Cell proliferation was quantified by the crystal violet method with a spectrophotometer. In short, after acquiring serial images (0, 24 and 48 hrs) with the EVOS XL Cell Imaging System microscope (Thermo Fisher Scientific), the cells imaged at 48 hrs were fixed with paraformaldehyde (4%) and stained with Crystal Violet (1%). Then, the specific absorbance (λ=590 nm) at 48 hrs was measured with a spectrophotometer (Infinite®200 PRO, Tecan). Data analysis was carried out by using ad-hoc Excel files for graphical representation and statistical processing (t-test). Moreover, the results obtained with Crystal Violet were confirmed by using another cell proliferation assessment method based on the real time cellular analyzer XCELLigence RTCA DP (ACEA Biosciences, Inc.). This tool allows cell growth to be monitored from electrical impedance-derived quantitative values (the so-called Cell Index) measured by tiny electrodes located at the base of the culture wells. Proliferation is monitored for several days (5-7) by setting a Cell Index per minute measure on the instrument. The data are analysed by processing various parameters calculated by the dedicated software, such as the cell duplication time, the slope and the Max Cell Index.
(§5) Cell proliferation was quantitated spectrophotometrically by the crystal violet method.

| Substance | HCT116 cell growth vs vehicle control |
| --- | --- |
| 2-(3,4-dihydroxyphenyl)-5,7-dihydroxy-4-oxo-4H-chromen-3-yl palmitate [Compound 5] | significantly inhibit |
| 2-(3,4-Dihydroxyphenyl)-3-hexadecyloxy-5,7-dihydroxy-4H-chromen-4-one [Compound 3] | significantly inhibit |

same assay, conditions: crystal violet, spectrophotometer; read-out: IC50 anti-proliferative effect, CRC (HCT116)

| Substance | IC50 |
| --- | --- |
| 2-(3,4-Dihydroxyphenyl)-3-ethoxy-5,7-dihydroxy-4H-chromen-4-one [Compound 1] | 166 µM |
| 2-(3,4-dihydroxyphenyl)-5,7-dihydroxy-4-oxo-4H-chromen-3-yl palmitate [Compound 5] | 28.8 µM |
| 2-(3,4-Dihydroxyphenyl)-3-hexadecyloxy-5,7-dihydroxy-4H-chromen-4-one [Compound 3] | 59.8 µM |

test system: human tongue carcinoma cells (Cal27); test: Cell proliferation, crystal violet method; format: cell-based; settings: 80 μM; FIG. 7a, 7b
Method: as §3, §4, §5

| Substance | Cal27 tumour growth vs vehicle control |
| --- | --- |
| 2-(3,4-Dihydroxyphenyl)-3-ethoxy-5,7-dihydroxy-4H-chromen-4-one [Compound 1] | significantly inhibit |
| 2-(3,4-dihydroxyphenyl)-5,7-dihydroxy-4-oxo-4H-chromen-3-yl palmitate [Compound 5] | significantly inhibit; also recorded: superior to that of quercetin |
| 2-(3,4-Dihydroxyphenyl)-3-hexadecyloxy-5,7-dihydroxy-4H-chromen-4-one [Compound 3] | significantly inhibit |

same assay, conditions: crystal violet, spectrophotometer; read-out: IC50 anti-proliferative effect, HNC - (Cal27)

| Substance | IC50 |
| --- | --- |
| 2-(3,4-Dihydroxyphenyl)-3-ethoxy-5,7-dihydroxy-4H-chromen-4-one [Compound 1] | 15.6 µM |
| 2-(3,4-dihydroxyphenyl)-5,7-dihydroxy-4-oxo-4H-chromen-3-yl palmitate [Compound 5] | 19.7 µM |
| 2-(3,4-Dihydroxyphenyl)-3-hexadecyloxy-5,7-dihydroxy-4H-chromen-4-one [Compound 3] | 36.7 µM |

test system: human mammary carcinoma cells (BT549); test: Cell proliferation, crystal violet method; format: cell-based; settings: 80 μM; FIG. 6a, 6b
Method: as §3, §4, §5

| Substance | BT549 cell growth vs vehicle control |
| --- | --- |
| 2-(3,4-Dihydroxyphenyl)-3-ethoxy-5,7-dihydroxy-4H-chromen-4-one [Compound 1] | significantly inhibit |
| 2-(3,4-dihydroxyphenyl)-5,7-dihydroxy-4-oxo-4H-chromen-3-yl palmitate [Compound 5] | significantly inhibit |
| 2-(3,4-Dihydroxyphenyl)-3-hexadecyloxy-5,7-dihydroxy-4H-chromen-4-one [Compound 3] | significantly inhibit |

same assay, conditions: crystal violet, spectrophotometer; read-out: IC50 anti-proliferative effect, BRC - (BT549)

| Substance | IC50 |
| --- | --- |
| 2-(3,4-Dihydroxyphenyl)-3-ethoxy-5,7-dihydroxy-4H-chromen-4-one [Compound 1] | 191 µM |
| 2-(3,4-dihydroxyphenyl)-5,7-dihydroxy-4-oxo-4H-chromen-3-yl palmitate [Compound 5] | 46.5 µM |
| 2-(3,4-Dihydroxyphenyl)-3-hexadecyloxy-5,7-dihydroxy-4H-chromen-4-one [Compound 3] | 119 µM |

test system: human melanoma cells (A375); test: Cell proliferation, crystal violet method; format: cell-based; settings: 60 μM; FIG. 1a, 1b
Method: as §3, §4, §5

| Substance | growth of melanoma cells (A375) vs vehicle control |
| --- | --- |
| 2-(3,4-dihydroxyphenyl)-5,7-dihydroxy-4-oxo-4H-chromen-3-yl palmitate [Compound 5] | significantly inhibit |

same assay, conditions: crystal violet, spectrophotometer; read-out: IC50 anti-proliferative effect, Melanoma (A375)

| Substance | IC50 |
| --- | --- |
| 2-(3,4-Dihydroxyphenyl)-3-ethoxy-5,7-dihydroxy-4H-chromen-4-one [Compound 1] | 67.1 µM |
| 2-(3,4-dihydroxyphenyl)-5,7-dihydroxy-4-oxo-4H-chromen-3-yl palmitate [Compound 5] | 16.4 µM |
| 2-(3,4-Dihydroxyphenyl)-3-hexadecyloxy-5,7-dihydroxy-4H-chromen-4-one [Compound 3] | 48.1 µM |

test system: human hepatocellular carcinoma cells (HepG2); test: Cell proliferation, crystal violet method; format: cell-based; settings: 80 μM; FIG. 8a, 8b
Method: as §3, §4, §5

| Substance | HepG2 tumour growth vs vehicle control |
| --- | --- |
| 2-(3,4-Dihydroxyphenyl)-3-ethoxy-5,7-dihydroxy-4H-chromen-4-one [Compound 1] | significantly inhibit |
| 2-(3,4-dihydroxyphenyl)-5,7-dihydroxy-4-oxo-4H-chromen-3-yl palmitate [Compound 5] | significantly inhibit; also recorded: superior to that of quercetin |
| 2-(3,4-Dihydroxyphenyl)-3-hexadecyloxy-5,7-dihydroxy-4H-chromen-4-one [Compound 3] | significantly inhibit; also recorded: superior to that of quercetin |

same assay, conditions: crystal violet, spectrophotometer; read-out: IC50 anti-proliferative effect, HCC - HepG2

| Substance | IC50 |
| --- | --- |
| 2-(3,4-Dihydroxyphenyl)-3-ethoxy-5,7-dihydroxy-4H-chromen-4-one [Compound 1] | 144 µM |
| 2-(3,4-dihydroxyphenyl)-5,7-dihydroxy-4-oxo-4H-chromen-3-yl palmitate [Compound 5] | 106 µM |
| 2-(3,4-Dihydroxyphenyl)-3-hexadecyloxy-5,7-dihydroxy-4H-chromen-4-one [Compound 3] | 50.2 µM |

test system: human colon carcinoma cells (HCT116); test: Intracellular ROS levels, DCFH2-DA probe; format: cell-based; settings: 2 hrs of treatment; at the respective anti-proliferative IC50s; DCF fluorescence in A.U.; FIG. 22 left
Method: Intracellular ROS levels were measured in tumour cells by using the probe 2,7-dichlorodihydrofluorescein diacetate (DCFH2-DA) and a fluorescence spectrophotometer. DCFH2-DA diffuses readily through the cell membrane into the cytosolic space of the cell where it is hydrolyzed by intracellular esterases into the non-permeable DCFH2 product. DCFH2 oxidation by intracellular ROS (mainly H2O2, HO·, ROO·, NO· and ONOO) results in the production of intracellular fluorescent DCF, whose concentration is directly proportional to the levels of ROS in the cell. […] All the experiments were repeated at least 3 times. Data analysis was carried out with GraphPad Prism 6 for graphical representation and statistical processing (1-way ANOVA test).

| Substance | intracellular ROS levels in HCT116 cells |
| --- | --- |
| 2-(3,4-Dihydroxyphenyl)-3-ethoxy-5,7-dihydroxy-4H-chromen-4-one [Compound 1] | significantly raise |
| 2-(3,4-Dihydroxyphenyl)-3-hexadecyloxy-5,7-dihydroxy-4H-chromen-4-one [Compound 3] | significantly raise |

same assay, conditions: pretreatment with N-Acetyl-L-Cysteine 10 mM; FIG. 22 right

| Substance | intracellular ROS levels in HCT116 cells after pretreatment with NAC |
| --- | --- |
| 2-(3,4-Dihydroxyphenyl)-3-ethoxy-5,7-dihydroxy-4H-chromen-4-one [Compound 1] | blocked |

test system: human colon (HCT116) tumour line; test: Apoptosis, acridine orange/ethidium bromide method; format: cell-based; settings: 2 hrs; Compound 2 50 μM, 5 40 μM, 4 40 μM, 3 60 μM, 1 60 μM; FIG. 18
Excerpt: as §1

| Substance | induction of apoptosis in HCT116 |
| --- | --- |
| 2-(3,4-Dihydroxyphenyl)-3-ethoxy-5,7-dihydroxy-4H-chromen-4-one [Compound 1] | induced apoptosis |
| 2-(3,4-dihydroxyphenyl)-5,7-dihydroxy-4-oxo-4H-chromen-3-yl palmitate [Compound 5] | induced apoptosis |
| 2-(3,4-Dihydroxyphenyl)-3-hexadecyloxy-5,7-dihydroxy-4H-chromen-4-one [Compound 3] | induced apoptosis |

test system: normal cells (human skin fibroblasts, WS1); test: Apoptosis, acridine orange/ethidium bromide method; format: cell-based; settings: 2 hrs; Compound 2 40 μM, 5 40 μM, 4 40 μM, 3 60 μM, 1 80 μM; FIG. 18

| Substance | induction of apoptosis in normal cells WS1 |
| --- | --- |
| 2-(3,4-Dihydroxyphenyl)-3-ethoxy-5,7-dihydroxy-4H-chromen-4-one [Compound 1] | not in normal cells |
| 2-(3,4-dihydroxyphenyl)-5,7-dihydroxy-4-oxo-4H-chromen-3-yl palmitate [Compound 5] | not in normal cells |
| 2-(3,4-Dihydroxyphenyl)-3-hexadecyloxy-5,7-dihydroxy-4H-chromen-4-one [Compound 3] | not in normal cells |
